According to paper PMC9754190, “Human CYP2B6 produces oxylipins from polyunsaturated fatty acids and reduces diet-induced obesity” (PLOS ONE, 2022):

How the values were obtained:
CYP2B6 [1] = target: T1, CYP2B6 (Homo sapiens, UniProt P20813); experiment: Vivid CYP2B6 Blue fluorescence inhibition assay with recombinant baculosomes; type: biochemical; design: CYP2B6-containing baculosomes
T1 sequence (P20813 1-491): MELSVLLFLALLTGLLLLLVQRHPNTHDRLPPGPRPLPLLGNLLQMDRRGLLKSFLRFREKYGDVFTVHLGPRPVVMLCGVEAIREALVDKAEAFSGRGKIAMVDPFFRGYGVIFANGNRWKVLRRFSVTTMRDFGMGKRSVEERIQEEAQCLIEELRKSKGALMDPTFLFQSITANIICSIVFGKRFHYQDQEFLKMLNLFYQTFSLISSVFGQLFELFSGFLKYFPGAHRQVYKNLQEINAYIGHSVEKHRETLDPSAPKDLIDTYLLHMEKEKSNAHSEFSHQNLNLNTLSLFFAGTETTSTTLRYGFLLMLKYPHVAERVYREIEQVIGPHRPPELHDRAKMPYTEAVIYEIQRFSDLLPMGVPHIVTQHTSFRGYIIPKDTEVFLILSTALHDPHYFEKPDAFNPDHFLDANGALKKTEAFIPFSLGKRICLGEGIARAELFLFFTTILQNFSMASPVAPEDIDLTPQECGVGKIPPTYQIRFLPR

CYP2B6 [2] = target: T1, CYP2B6; experiment: biochemical

**Q.** For `CCCCC/C=C\C/C=C\C/C=C\C/C=C\CCCC(=O)O` [AA, arachidonic acid], which IC50 (CYP2B6 [1]) is on record?
**A.** 1510 nM

**Q.** With `CC/C=C\C/C=C\C/C=C\C/C=C\C/C=C\C/C=C\CCC(=O)O` [DHA, docosahexaenoic acid] as the molecule, how does the IC50 (CYP2B6 [1]) read?
**A.** 2400 nM

**Q.** Which IC50 (CYP2B6 [1]) does the source give for `CCCCC/C=C\C/C=C\CCCCCCCC(=O)O` [LA, linoleic acid] here?
**A.** 2900 nM

**Q.** For `CC/C=C\C/C=C\C/C=C\CCCCCCCC(=O)O` [ALA, α-linolenic acid], which IC50 (CYP2B6 [2]) is on record?
**A.** 4480 nM
